Laboratory results: the CheMixHub viscosity set

Experiment: xn = mol fraction of the nth substance listed

CNC=O + Cc1ccccc1N
viscosity [mPa·s], 100 kPa
Settings	x1 = 0.0896	x1 = 0.1601	x1 = 0.2501	x1 = 0.3425	x1 = 0.4328	x1 = 0.5424	x1 = 0.6554	x1 = 0.7342	x1 = 0.8414
303.15 K	3.114	3	2.853	2.702	2.553	2.369	2.179	2.045	1.86
308.15 K	2.708	2.617	2.498	2.375	2.254	2.105	1.95	1.84	1.689
313.15 K	2.393	2.317	2.219	2.117	2.016	1.892	1.763	1.671	1.544
318.15 K	2.081	2.022	1.946	1.865	1.786	1.688	1.585	1.513	1.411

CCCCCCBr + ClC(Cl)(Cl)Cl
101 kPa
Settings	viscosity [mPa·s]
298.15 K, x1 = 0.1135	0.8881
298.15 K, x1 = 0.1518	0.8858
298.15 K, x1 = 0.1823	0.8835
298.15 K, x1 = 0.2319	0.8822
298.15 K, x1 = 0.3098	0.8844
298.15 K, x1 = 0.474	0.8943
298.15 K, x1 = 0.6449	0.9113
303.45 K, x1 = 0.0686	0.8329
303.45 K, x1 = 0.0894	0.8281
303.45 K, x1 = 0.1554	0.8277
303.45 K, x1 = 0.1952	0.8288
303.45 K, x1 = 0.2666	0.8328
303.45 K, x1 = 0.424	0.8436
303.45 K, x1 = 0.5955	0.8555
303.45 K, x1 = 0.7896	0.8708
313.35 K, x1 = 0.0691	0.7236
313.35 K, x1 = 0.0909	0.723
313.35 K, x1 = 0.1303	0.7251
313.35 K, x1 = 0.1568	0.7252
313.35 K, x1 = 0.1996	0.7259
313.35 K, x1 = 0.2736	0.7309
313.35 K, x1 = 0.5015	0.7462
313.35 K, x1 = 0.7896	0.7649

CCOCCOCCOCC + ClC(Cl)(Cl)Cl
298.15 K, 101 kPa
Settings	viscosity [mPa·s]
x1 = 0.0066	0.914
x1 = 0.0198	0.932
x1 = 0.0498	0.975
x1 = 0.0871	1.016
x1 = 0.127	1.051
x1 = 0.1781	1.093
x1 = 0.2051	1.115
x1 = 0.2354	1.134
x1 = 0.2797	1.161
x1 = 0.3206	1.18
x1 = 0.3371	1.189
x1 = 0.3614	1.202
x1 = 0.3768	1.21
x1 = 0.4165	1.225
x1 = 0.4689	1.241
x1 = 0.5264	1.257
x1 = 0.5651	1.269
x1 = 0.599	1.269
x1 = 0.6708	1.274
x1 = 0.715	1.286
x1 = 0.7943	1.293
x1 = 0.8245	1.283
x1 = 0.8784	1.282
x1 = 0.9126	1.282
x1 = 0.9535	1.273

CCCCOCCO + ClC(Cl)Cl
298.15 K, 101.3 kPa
Settings	viscosity [mPa·s]
x1 = 0.0035	0.536
x1 = 0.0216	0.555
x1 = 0.0344	0.57
x1 = 0.0767	0.628
x1 = 0.1259	0.703
x1 = 0.2281	0.901
x1 = 0.2903	1.042
x1 = 0.3627	1.235
x1 = 0.4472	1.494
x1 = 0.5049	1.659
x1 = 0.5823	1.894
x1 = 0.6772	2.175
x1 = 0.7828	2.429
x1 = 0.8296	2.525
x1 = 0.9123	2.702

CCOCCOCCOCC + ClC(Cl)Cl
298.15 K, 101 kPa
Settings	viscosity [mPa·s]
x1 = 0.0089	0.538
x1 = 0.0178	0.56
x1 = 0.0263	0.579
x1 = 0.0446	0.62
x1 = 0.0878	0.723
x1 = 0.1473	0.862
x1 = 0.1744	0.916
x1 = 0.2224	1.012
x1 = 0.2736	1.108
x1 = 0.3402	1.194
x1 = 0.345	1.208
x1 = 0.3725	1.248
x1 = 0.4081	1.284
x1 = 0.4541	1.316
x1 = 0.509	1.341
x1 = 0.5754	1.353
x1 = 0.626	1.358
x1 = 0.6804	1.352
x1 = 0.7347	1.342
x1 = 0.7875	1.326
x1 = 0.8348	1.312
x1 = 0.8675	1.309
x1 = 0.9216	1.292
x1 = 0.9756	1.278

CCOCCOCCOCC + ClCCl
298.15 K, 101 kPa
Settings	viscosity [mPa·s]
x1 = 0.0052	0.409
x1 = 0.0103	0.413
x1 = 0.0277	0.449
x1 = 0.0559	0.492
x1 = 0.0751	0.516
x1 = 0.1056	0.576
x1 = 0.1326	0.622
x1 = 0.1807	0.699
x1 = 0.2427	0.784
x1 = 0.2846	0.843
x1 = 0.3028	0.87
x1 = 0.3207	0.893
x1 = 0.3629	0.948
x1 = 0.4227	1.006
x1 = 0.445	1.031
x1 = 0.5119	1.096
x1 = 0.5582	1.131
x1 = 0.583	1.148
x1 = 0.6108	1.172
x1 = 0.6567	1.192
x1 = 0.7048	1.217
x1 = 0.7501	1.233
x1 = 0.803	1.246
x1 = 0.8457	1.264
x1 = 0.9124	1.268
x1 = 0.9488	1.269
x1 = 0.9709	1.27

CCOC(=O)CCl + Clc1ccccc1
viscosity [mPa·s], 101.3 kPa
Settings	x1 = 0.1064	x1 = 0.2055	x1 = 0.3	x1 = 0.3972	x1 = 0.5005	x1 = 0.5976	x1 = 0.6985	x1 = 0.7953	x1 = 0.8963
298.15 K	0.799	0.828	0.858	0.889	0.925	0.959	0.996	1.031	1.064
303.15 K	0.752	0.778	0.804	0.834	0.865	0.895	0.927	0.959	0.986
308.15 K	0.706	0.728	0.751	0.776	0.804	0.831	0.858	0.885	0.91

CCOC(=O)CCl + N#CCc1ccccc1
Settings	viscosity [mPa·s]
308.15 K, 101 kPa, x2 = 0.3793	1.155
